We go through nine compounds from patent US4522839A, “3-Substituted 2,4,6-trihalogenated benzamides as sweetening agents” (Schering Aktiengesellschaft, priority 1980, dated 1985).

Data set [1] is described as follows: Identification threshold values (cts) of sweeteners (triangle test) and comparison with sucrose. Details: species or system persons. Particulars: for f suc, mol (cts): compound, sweetening power relative to sucrose, molar; for Identification Threshold Values (cts): tap water, pH 6-7 if necessary with NaOH, 5 persons, triangle test, 1 ml samples. On the procedure:
These sensory investigations were conducted by 5 persons; all samples were encoded by a person not participating in the test. […] Consecutive samples of 1 ml were consumed. The approximate concentration values determined in a preliminary test were inserted, in the main experiment, in the middle of a dilution series. All solutions of a compound were encoded with two water samples (triangle test). The testers must indicate which of the three samples of decreasing concentration are considered to be sweet. The identification threshold value is set forth to be the lowest concentration range (cts) at which the testers still render a correct judgment.

The nature of data set [2]: Degree of sweetening compared with 5% sucrose solution (taste test). Conditions: times the sweetening power of sucrose (sucrose = 1), average of 3 taste tests. Details: species or system healthy volunteers. As for the experimental part: (§1) The taste tests were conducted by three healthy volunteers; the solutions were coded by letter-number combinations and randomized so that the tester could not know which compound he or she tasted. Also the reference solution (5% sucrose) remained part of the randomizing plan initially, for the purpose of general taste characteristics of the compounds.

Data set [3] is described as follows: in vivo. Conditions: mouse, ip.
Data set [4] can be described thus: General taste evaluation of aqueous solutions in concentration stages 1-8 (blind taste test). Details: species or system healthy volunteers. Particulars: average results of 3 taste tests. As for the experimental part: The following concentrations correspond to the 8 concentration stages tested:
as §1

In data set [5] the test system is mice. Particulars: for Number of Dead Animals/Number of Animals Utilized: mice, intraperitoneal.
For data set [6] the following is noted: literature (Hager's Manual), b158: also determined by all three testers in a blind taste test, cited from earlier work.

Like-named read-outs stand apart in the source and are kept apart here. Residues, ends and D or L forms follow the SMILES beside them.

In the case of `CCOc1ccc(NC(N)=O)cc1` [Dulcin], in data set [1], the “f suc, mol (cts)” value is reported as 489 and the “Identification Threshold Values (cts)” value was in the range of 15 to 30 µmol/L.

With `NC(=O)c1c(I)cc(I)c(CCC(=O)O)c1I` [E, 3-(3-carbamoyl-2,4,6-triiodophenyl)propionic acid], in data set [1], the “Identification Threshold Values (cts)” value was in the range of 1.0 to 2.0 µmol/L.

With `NC(=O)c1c(I)cc(I)c(OCC(=O)O)c1I` [F, 3-carbamoyl-2,4,6-triiodophenoxyacetic acid], in data set [1], the “Identification Threshold Values (cts)” value is 15 to 25 µmol/L.

Take `NC(=O)c1c(Cl)cc(Cl)c(CCC(=O)O)c1Cl` [G, 3-(3-carbamoyl-2,4,6-trichlorophenyl)propionic acid]: the “Identification Threshold Values (cts)” value in data set [1] was 2.5 to 4.0 µmol/L.

As for `COC(=O)[C@H](Cc1ccccc1)NC(=O)[C@@H](N)CC(=O)O` [Aspartame] (H-Asp-Phe-OMe), in data set [1], the “f suc, mol (cts)” value was determined as 275 and the “Identification Threshold Values (cts)” value was in the range of 20 to 60 µmol/L.

Consider `OC[C@H]1O[C@@](CO)(O[C@H]2O[C@H](CO)[C@@H](O)[C@H](O)[C@H]2O)[C@@H](O)[C@@H]1O` [Sucrose], for which, in data set [2], the “Degree of Sweetening” value was 1. In addition, in data set [1], the “f suc, mol (cts)” value is on record as 1 and the “Identification Threshold Values (cts)” value lay in the range of 10000 to 12000 µmol/L.

A word on the LD50: it is the dose at which mortality reaches 50%. Read a high LD50 as lower toxicity. `NC(=O)c1c(Br)cc(Br)c(CCC(=O)O)c1Br` [A, 3-(3-carbamoyl-2,4,6-tribromophenyl)propionic acid] showed an LD50 in data set [3] of around 6000 mg/kg. Besides, in data set [4] (0.781 mg/100 ml (1/6400 of 5% sucrose)), the “General Taste Evaluation, concentration stage 7” value is reported as “Sweet”. For the same compound, the “General Taste Evaluation, concentration stage 6” value in data set [4] (1.563 mg/100 ml (1/3200 of 5% sucrose)) was “Sweet”. In addition, the General compatibility entry in data set [5] (intraperitoneal injection in mice) is given as “approximately the same good compatibility as sodium saccharin”. Also, the “Number of Dead Animals/Number of Animals Utilized” value is on record as 2/10 in data set [5] (3.0 g/kg BW), 6/10 in data set [5] (6.0 g/kg BW) and 10/10 in data set [5] (9.0 g/kg BW). In data set [2], the “Degree of Sweetening” value was 6000-7000. Besides, the “Identification Threshold Values (cts)” value in data set [1] fell in the range of 0.6 to 1.4 µmol/L.

In the case of `O=C1NS(=O)(=O)c2ccccc21.[Na]` [Sodium Saccharin], the “General Taste Evaluation, concentration stage 2” value in data set [4] (25.0 mg/100 ml (1/200 of 5% sucrose)) was “Sweet”. The “General Taste Evaluation, concentration stage 1” value in data set [4] (50.0 mg/100 ml (1/100 of 5% sucrose)) was “Sweet”. Besides, the “Degree of sweetening known from the literature” value in data set [6] is reported as 400. The “Number of Dead Animals/Number of Animals Utilized” value in data set [5] (3.0 g/kg BW) is reported as 0/10. For the same compound, the “Number of Dead Animals/Number of Animals Utilized” value in data set [5] (6.0 g/kg BW) was 5/10. Also, the “Degree of Sweetening” value in data set [2] is given as 400. Moreover, in data set [1], the “f suc, mol (cts)” value was 489 and the “Identification Threshold Values (cts)” value was in the range of 15 to 30 µmol/L.

Take `O=S(=O)(O)NC1CCCCC1` [Cyclamate]: the “Degree of sweetening known from the literature” value in data set [6] is given as 30-70; in data set [6] (listed as Sodium cyclamate), 70. For the same compound, the “Degree of Sweetening” value in data set [2] is recorded as below 100. Besides, in data set [1], the “f suc, mol (cts)” value amounted to 5.5. For the same compound, the “Identification Threshold Values (cts)” value in data set [1] is 1000 to 3000 µmol/L.
